{"source": "paper PMC11752117", "about": "(Journal of Traditional and Complementary Medicine, 2024)", "test_in_all_cases": "microbe, parasite or virus in culture", "type_in_all_cases": "cell-based", "key": {"SARS-CoV-2 Alpha variant": {"system": "SARS-CoV-2 Alpha variant", "conditions": "Severe acute respiratory syndrome coronavirus 2, A549, 48 h, read-out: IC50, inhibition of SARS-CoV-2 infection, Alpha, A549-ACE2-TMPRSS2, 1.56 to 50 μM for 2 days, n = 2"}, "[1]": {"system": "SARS-CoV-2 Omicron BA.2 variant", "conditions": "Severe acute respiratory syndrome coronavirus 2, A549, 48 h, read-out: IC50, inhibition of SARS-CoV-2 infection"}, "SARS-CoV-2 Delta variant": {"system": "SARS-CoV-2 Delta variant", "conditions": "Severe acute respiratory syndrome coronavirus 2, A549, 48 h, read-out: IC50, inhibition of SARS-CoV-2 infection"}}}
{"smiles": "C=C1CC[C@@H]2[C@](C)(CO)[C@H](O)CC[C@@]2(C)[C@@H]1C/C=C1/C(=O)OC[C@H]1O", "note": "[Andrographolide, andrographolide]", "values": [{"measurement": "IC50", "setting": "SARS-CoV-2 Alpha variant", "result": 7.08, "unit": "µM"}, {"measurement": "IC50", "setting": "[1]", "result": 4.62, "unit": "µM"}, {"measurement": "IC50", "setting": "SARS-CoV-2 Delta variant", "result": 7.35, "unit": "µM"}]}
